Measurements published in US9701670B2, “Pyrazolyl-ureas as kinase inhibitors” (RESPIVERT LIMITED, priority 2013, dated 2017).

What was measured:
[1] = target: p38 MAPKα isoform (MAPK14) (Homo sapiens (Human), UniProt Q16539); test: p38 MAPKα enzyme inhibition (FRET, Z-LYTE), Method 1; type: biochemical; conditions: Method 1 (Table 4a1)
Method: The enzyme inhibitory activities of compounds disclosed herein are determined by FRET using synthetic peptides labelled with both donor and acceptor fluorophores (Z-LYTE, Invitrogen Ltd., Paisley, UK).
The inhibitory activities of test compounds against the p38 MAPKα isoform (MAPK14: Invitrogen), are evaluated indirectly by determining the level of activation/phosphorylation of the down-stream molecule, MAPKAP-K2. The p38 MAPKα protein (80 ng/mL, 2.5 μL) is mixed with the test compound (2.5 μL of either 4 μg/mL, 0.4 μg/mL, 0.04 μg/mL or 0.004 μg/mL) for 2 hr at RT. […] The mixture is incubated for 1 hr at RT. Development reagent (protease, 5 μL) is added for 1 hr prior to detection in a fluorescence microplate reader (Varioskan® Flash, ThermoFisher Scientific).
In all cases, the site-specific protease cleaves non-phosphorylated peptide only and eliminates the FRET signal. Phosphorylation levels of each reaction are calculated using the ratio of coumarin emission (donor) over fluorescein emission (acceptor), for which high ratios indicate high phosphorylation and low ratios indicate low phosphorylation levels.

[2] = system: Differentiated U937 cells; test: (l) Cell viability: MTT assay; type: cell-based, human; conditions: 1 μg/mL
Method: Differentiated U937 cells are pre-incubated with each test compound (final concentration 1 μg/mL or 10 μg/mL in 200 μL media indicated below) under two protocols: the first for 4 hr in 5% FCS RPMI1640 media and the second in 10% FCS RPMI1640 media for 24 h. The supernatant is replaced with new media (200 μL) and MTT stock solution (10 μL, 5 mg/mL) is added to each well. After incubation for 1 hr the media are removed, DMSO (200 μL) is added to each well and the plates are shaken lightly for 1 hr prior to reading the absorbance at 550 nm. The percentage loss of cell viability is calculated for each well relative to vehicle (0.5% DMSO) treatment. Consequently an apparent increase in cell viability for drug treatment relative to vehicle is tabulated as a negative percentage.

p38 MAPKα isoform (MAPK14), sequence (Q16539 whole entry, canonical isoform): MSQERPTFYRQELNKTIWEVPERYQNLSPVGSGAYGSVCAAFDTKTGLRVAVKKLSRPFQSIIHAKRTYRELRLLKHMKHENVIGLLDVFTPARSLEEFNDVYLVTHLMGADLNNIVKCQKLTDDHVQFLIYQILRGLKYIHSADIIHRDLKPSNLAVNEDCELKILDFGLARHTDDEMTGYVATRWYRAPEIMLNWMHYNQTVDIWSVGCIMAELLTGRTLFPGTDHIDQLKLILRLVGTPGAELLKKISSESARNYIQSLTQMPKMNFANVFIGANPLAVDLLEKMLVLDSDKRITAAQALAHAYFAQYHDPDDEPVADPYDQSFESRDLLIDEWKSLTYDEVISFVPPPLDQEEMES

Row | IC50 [1] [nM] | SMILES | Cell viability at time point in d-U937 cells 4 h [2] | Cell viability at time point in d-U937 cells 24 h [2]
1 | 26 | COc1cc(C(=O)NCCO)ccc1Nc1nccc(Oc2ccc(NC(=O)Nc3cc(C(C)(C)C)nn3-c3ccc(C)cc3)c3ccccc23)n1 [Example 4, 4-((4-((4-(3-(3-(tert-Butyl)-1-(p-tolyl)-1H-pyrazol-5-yl)ureido)naphthalen-1-yl)oxy)pyrimidin-2-yl)amino)-N-(2-hydroxyethyl)-3-methoxybenzamide] | −ve (−ve and +ve indicate that the value is below and above respectively, the no significant effect threshold, defined as 30% inhibition at 1 μg/mL at the time point indicated.) | −ve (−ve and +ve indicate that the value is below and above respectively, the no significant effect threshold, defined as 30% inhibition at 1 μg/mL at the time point indicated.)
2 | 7 | COc1cc(C(=O)NCCO)ccc1Nc1nccc(Oc2ccc(NC(=O)Nc3cc(C(C)C)nn3-c3ccc(C)cc3)c3ccccc23)n1 [Example 39, N-(2-hydroxyethyl)-4-((4-((4-(3-(3-isopropyl-1-(p-tolyl)-1H-pyrazol-5-yl)ureido)naphthalen-1-yl)oxy)pyrimidin-2-yl)amino)-3-methoxybenzamide] | −ve (−ve and +ve indicate that the value is below and above respectively, the no significant effect threshold, defined as 30% inhibition at 1 μg/mL at the time point indicated.) | −ve (−ve and +ve indicate that the value is below and above respectively, the no significant effect threshold, defined as 30% inhibition at 1 μg/mL at the time point indicated.)
3 | 3 | COc1ccc(C(=O)NCCN2CCOCC2)cc1Nc1nccc(Oc2ccc(NC(=O)Nc3cc(C(C)C)nn3-c3ccc(C)cc3)c3ccccc23)n1 [Example 30, 3-((4-((4-(3-(3-isopropyl-1-(p-tolyl)-1H-pyrazol-5-yl)ureido)naphthalen-1-yl)oxy)pyrimidin-2-yl)amino)-4-methoxy-N-(2-morpholinoethyl)benzamide] | −ve (−ve and +ve indicate that the value is below and above respectively, the no significant effect threshold, defined as 30% inhibition at 1 μg/mL at the time point indicated.) | −ve (−ve and +ve indicate that the value is below and above respectively, the no significant effect threshold, defined as 30% inhibition at 1 μg/mL at the time point indicated.)
4 | 1 | COc1ccc(C(=O)NCCO)cc1Nc1nccc(Oc2ccc(NC(=O)Nc3cc(C(C)C)nn3-c3ccc(C)cc3)c3ccccc23)n1 [Example 32, N-(2-hydroxyethyl)-3-((4-((4-(3-(3-isopropyl-1-(p-tolyl)-1H-pyrazol-5-yl)ureido)naphthalen-1-yl)oxy)pyrimidin-2-yl)amino)-4-methoxybenzamide] | −ve (−ve and +ve indicate that the value is below and above respectively, the no significant effect threshold, defined as 30% inhibition at 1 μg/mL at the time point indicated.) | −ve (−ve and +ve indicate that the value is below and above respectively, the no significant effect threshold, defined as 30% inhibition at 1 μg/mL at the time point indicated.)
5 | < 1 | COc1cc(C(=O)NCCN(C)C)ccc1Nc1nccc(Oc2ccc(NC(=O)Nc3cc(C(C)C)nn3-c3ccc(C)cc3)c3ccccc23)n1 [Example 35, N-(2-(dimethylamino)ethyl)-4-((4-((4-(3-(3-isopropyl-1-(p-tolyl)-1H-pyrazol-5-yl)ureido)naphthalen-1-yl)oxy)pyrimidin-2-yl)amino)-3-methoxybenzamide] | −ve (−ve and +ve indicate that the value is below and above respectively, the no significant effect threshold, defined as 30% inhibition at 1 μg/mL at the time point indicated.) | −ve (−ve and +ve indicate that the value is below and above respectively, the no significant effect threshold, defined as 30% inhibition at 1 μg/mL at the time point indicated.)

More lines, now with the values behind:

Row | SMILES | IC50 [1] [nM] | Cell viability at time point in d-U937 cells 4 h [2] | Cell viability at time point in d-U937 cells 24 h [2]
6 | Cc1ccc(-n2nc(C(C)(C)C)cc2NC(=O)Nc2ccc(Oc3ccnc(Nc4cc(Br)cc(C(=O)NCCN5CCOCC5)c4)n3)c3ccccc23)cc1 [Example 62, 3-bromo-5-((4-((4-(3-(3-(tert-butyl)-1-(p-tolyl)-1H-pyrazol-5-yl)ureido)naphthalen-1-yl)oxy)pyrimidin-2-yl)amino)-N-(2-morpholinoethyl)benzamide] | 22 | −ve (−ve and +ve indicate that the value is below and above respectively, the no significant effect threshold, defined as 30% inhibition at 1 μg/mL at the time point indicated.) | +ve (−ve and +ve indicate that the value is below and above respectively, the no significant effect threshold, defined as 30% inhibition at 1 μg/mL at the time point indicated.)
7 | Cc1ccc(-n2nc(C(C)(C)C)cc2NC(=O)Nc2ccc(Oc3ccnc(Nc4cc(C)cc(C(N)=O)c4)n3)c3ccccc23)cc1 [Example 40, 3-((4-((4-(3-(3-(tert-butyl)-1-(p-tolyl)-1H-pyrazol-5-yl)ureido)naphthalen-1-yl)oxy)pyrimidin-2-yl)amino)-5-methylbenzamide] | 52 | −ve (−ve and +ve indicate that the value is below and above respectively, the no significant effect threshold, defined as 30% inhibition at 1 μg/mL at the time point indicated.) | −ve (−ve and +ve indicate that the value is below and above respectively, the no significant effect threshold, defined as 30% inhibition at 1 μg/mL at the time point indicated.)
8 | COc1cc(Nc2nccc(Oc3ccc(NC(=O)Nc4cc(C5(C)CC5)nn4-c4ccc(C)cc4)c4ccccc34)n2)cc(C(=O)NCCN2CCOCC2)c1 [Example 51, 3-methoxy-5-((4-((4-(3-(3-(1-methylcyclopropyl)-1-(p-tolyl)-1H-pyrazol-5-yl)ureido)naphthalen-1-yl)oxy)pyrimidin-2-yl)amino)-N-(2-morpholinoethyl)benzamide] | 15 | −ve (−ve and +ve indicate that the value is below and above respectively, the no significant effect threshold, defined as 30% inhibition at 1 μg/mL at the time point indicated.) | −ve (−ve and +ve indicate that the value is below and above respectively, the no significant effect threshold, defined as 30% inhibition at 1 μg/mL at the time point indicated.)
9 | COc1cc(C(=O)NCCN2CCOCC2)ccc1Nc1nccc(Oc2ccc(NC(=O)Nc3cc(C(C)(C)C)nn3-c3ccc(C)cc3)c3ccccc23)n1 [Example 37, 4-((4-((4-(3-(3-(tert-butyl)-1-(p-tolyl)-1H-pyrazol-5-yl)ureido)naphthalen-1-yl)oxy)pyrimidin-2-yl)amino)-3-methoxy-N-(2-morpholinoethyl)benzamide] | 44 | −ve (−ve and +ve indicate that the value is below and above respectively, the no significant effect threshold, defined as 30% inhibition at 1 μg/mL at the time point indicated.) | −ve (−ve and +ve indicate that the value is below and above respectively, the no significant effect threshold, defined as 30% inhibition at 1 μg/mL at the time point indicated.)
10 | COc1ccc(-n2nc(C(C)C)cc2NC(=O)Nc2ccc(Oc3cc(Nc4cc(OC)cc(C(=O)NCCN5CCOCC5)c4)ncn3)c3ccccc23)cc1 [Example 14, 3-((6-((4-(3-(3-isopropyl-1-(4-methoxyphenyl)-1H-pyrazol-5-yl)ureido)naphthalen-1-yl)oxy)pyrimidin-4-yl)amino)-5-methoxy-N-(2-morpholinoethyl)benzamide] | < 1 | −ve (−ve and +ve indicate that the value is below and above respectively, the no significant effect threshold, defined as 30% inhibition at 1 μg/mL at the time point indicated.) | +ve (−ve and +ve indicate that the value is below and above respectively, the no significant effect threshold, defined as 30% inhibition at 1 μg/mL at the time point indicated.)
11 | COc1ccc(-n2nc(C(C)C)cc2NC(=O)Nc2ccc(Oc3ccnc(Nc4cccc(C(=O)NCCN5CCOCC5)c4)n3)c3ccccc23)cc1 [Example 20, 3-((4-((4-(3-(3-isopropyl-1-(4-methoxyphenyl)-1H-pyrazol-5-yl)ureido)naphthalen-1-yl)oxy)pyrimidin-2-yl)amino)-N-(2-morpholinoethyl)benzamide] | 5 | −ve (−ve and +ve indicate that the value is below and above respectively, the no significant effect threshold, defined as 30% inhibition at 1 μg/mL at the time point indicated.) | −ve (−ve and +ve indicate that the value is below and above respectively, the no significant effect threshold, defined as 30% inhibition at 1 μg/mL at the time point indicated.)
